Consider 3 compounds from ChEMBL document CHEMBL5715954, “Silencing c-Myc translation as a therapeutic strategy through targeting PI3Kδ and CK1ε in hematological malignancies” (Blood, 2017).

Common to all, as to parameters: scale not given: the % may be the effect or the level left
Assay [1] concerns the target Serine/threonine-protein kinase WNK1 (Homo sapiens) (UniProt Q9H4A3). The assay is described as follows: Inhibition of human WNK1 assessed as enzyme activity at 1 uM using myelin basic protein as substrate preincubated for 20 mins followed by [gamma-33P]-ATP addition and measured after 120 mins by radiometric Hot-SpotSM Kinase assay relative to control.
Assay [2] concerns the target T1, Dual specificity mitogen-activated protein kinase kinase 5 (Homo sapiens) (UniProt Q13163).
T1 sequence (whole entry): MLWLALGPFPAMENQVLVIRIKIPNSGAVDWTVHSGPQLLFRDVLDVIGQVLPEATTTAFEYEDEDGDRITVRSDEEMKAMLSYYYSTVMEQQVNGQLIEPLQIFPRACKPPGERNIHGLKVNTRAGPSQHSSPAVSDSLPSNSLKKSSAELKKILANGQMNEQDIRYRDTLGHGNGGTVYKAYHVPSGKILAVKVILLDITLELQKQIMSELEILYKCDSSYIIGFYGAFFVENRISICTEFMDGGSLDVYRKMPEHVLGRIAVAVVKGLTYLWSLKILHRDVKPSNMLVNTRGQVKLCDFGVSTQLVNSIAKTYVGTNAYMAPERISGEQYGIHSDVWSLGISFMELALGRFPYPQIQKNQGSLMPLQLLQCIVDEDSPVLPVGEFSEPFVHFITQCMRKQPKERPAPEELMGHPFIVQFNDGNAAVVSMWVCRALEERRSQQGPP
In words: Inhibition of human MEK5 assessed as enzyme activity at 1 uM using ERK5 (K84R) as substrate preincubated for 20 mins followed by [gamma-33P]-ATP addition and measured after 120 mins by radiometric Hot-SpotSM Kinase assay relative to control.

Assay [3] has as its target T2, Tyrosine-protein kinase TXK (Homo sapiens) (UniProt P42681).
T2 sequence (whole entry): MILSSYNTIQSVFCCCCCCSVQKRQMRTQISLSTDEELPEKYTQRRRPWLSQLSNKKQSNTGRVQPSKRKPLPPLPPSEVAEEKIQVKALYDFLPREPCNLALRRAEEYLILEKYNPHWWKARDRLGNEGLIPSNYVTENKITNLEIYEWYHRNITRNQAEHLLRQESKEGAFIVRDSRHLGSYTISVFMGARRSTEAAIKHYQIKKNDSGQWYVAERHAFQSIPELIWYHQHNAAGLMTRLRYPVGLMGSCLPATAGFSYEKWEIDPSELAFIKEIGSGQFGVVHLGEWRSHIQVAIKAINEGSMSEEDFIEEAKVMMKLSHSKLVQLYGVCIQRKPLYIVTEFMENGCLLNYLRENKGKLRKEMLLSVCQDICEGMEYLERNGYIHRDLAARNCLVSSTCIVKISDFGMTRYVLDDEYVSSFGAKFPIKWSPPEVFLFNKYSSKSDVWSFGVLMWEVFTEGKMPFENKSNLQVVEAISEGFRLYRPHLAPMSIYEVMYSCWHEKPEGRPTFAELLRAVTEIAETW
In words: Inhibition of human TXK assessed as enzyme activity at 1 uM using EAIYAAPFAKKK as substrate preincubated for 20 mins followed by [gamma-33P]-ATP addition and measured after 120 mins by radiometric Hot-SpotSM Kinase assay relative to control.

The target in assay [4] is Serine/threonine-protein kinase 26 (Homo sapiens) (UniProt Q9P289). The assay is described as follows: Inhibition of human MST4 assessed as enzyme activity at 1 uM using myelin basic protein as substrate preincubated for 20 mins followed by [gamma-33P]-ATP addition and measured after 120 mins by radiometric Hot-SpotSM Kinase assay relative to control.
For assay [5], the target named is T3, Mitogen-activated protein kinase kinase kinase kinase 2 (Homo sapiens) (UniProt Q12851).
T3 sequence (whole entry): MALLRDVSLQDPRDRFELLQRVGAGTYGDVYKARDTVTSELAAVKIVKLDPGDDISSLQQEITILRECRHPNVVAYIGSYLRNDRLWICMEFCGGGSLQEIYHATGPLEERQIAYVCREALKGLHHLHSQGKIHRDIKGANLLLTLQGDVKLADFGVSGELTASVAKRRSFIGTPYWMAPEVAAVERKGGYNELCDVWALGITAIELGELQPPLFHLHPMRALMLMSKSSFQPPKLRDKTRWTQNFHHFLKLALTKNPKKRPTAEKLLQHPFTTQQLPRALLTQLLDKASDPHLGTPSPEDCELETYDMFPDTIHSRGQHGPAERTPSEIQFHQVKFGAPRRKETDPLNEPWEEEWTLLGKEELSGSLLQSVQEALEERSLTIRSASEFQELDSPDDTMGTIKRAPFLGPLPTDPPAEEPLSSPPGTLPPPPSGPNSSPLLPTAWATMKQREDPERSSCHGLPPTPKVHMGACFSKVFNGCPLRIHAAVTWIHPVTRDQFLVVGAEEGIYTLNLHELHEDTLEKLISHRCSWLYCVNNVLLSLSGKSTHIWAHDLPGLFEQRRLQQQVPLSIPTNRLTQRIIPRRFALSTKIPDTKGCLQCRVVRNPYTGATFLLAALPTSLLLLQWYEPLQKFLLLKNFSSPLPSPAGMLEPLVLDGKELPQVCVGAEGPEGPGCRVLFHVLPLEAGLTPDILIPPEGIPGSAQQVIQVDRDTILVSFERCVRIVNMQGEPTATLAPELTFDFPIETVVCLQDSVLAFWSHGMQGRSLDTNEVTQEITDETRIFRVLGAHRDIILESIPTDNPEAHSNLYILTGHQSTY
The assay is described as follows: Inhibition of human GCK assessed as enzyme activity at 1 uM using myelin basic protein as substrate preincubated for 20 mins followed by [gamma-33P]-ATP addition and measured after 120 mins by radiometric Hot-SpotSM Kinase assay relative to control.

Structures are written as SMILES.

Chain of Serine/threonine-protein kinase 26 (Homo sapiens) (Q9P289 2-416 limits assumed): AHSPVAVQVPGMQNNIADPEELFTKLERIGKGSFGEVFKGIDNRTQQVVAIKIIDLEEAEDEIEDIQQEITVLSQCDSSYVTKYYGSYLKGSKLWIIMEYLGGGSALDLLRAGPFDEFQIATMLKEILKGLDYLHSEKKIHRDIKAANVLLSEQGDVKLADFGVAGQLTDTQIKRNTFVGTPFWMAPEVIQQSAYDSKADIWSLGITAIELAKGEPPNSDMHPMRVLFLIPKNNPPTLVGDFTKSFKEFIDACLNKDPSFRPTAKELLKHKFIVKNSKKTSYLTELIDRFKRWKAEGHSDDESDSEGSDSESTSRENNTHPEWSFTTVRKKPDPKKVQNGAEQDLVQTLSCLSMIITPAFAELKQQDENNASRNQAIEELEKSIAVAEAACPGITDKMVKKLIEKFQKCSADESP
Chain of Serine/threonine-protein kinase WNK1 (Homo sapiens) (Q9H4A3 whole entry, looked up): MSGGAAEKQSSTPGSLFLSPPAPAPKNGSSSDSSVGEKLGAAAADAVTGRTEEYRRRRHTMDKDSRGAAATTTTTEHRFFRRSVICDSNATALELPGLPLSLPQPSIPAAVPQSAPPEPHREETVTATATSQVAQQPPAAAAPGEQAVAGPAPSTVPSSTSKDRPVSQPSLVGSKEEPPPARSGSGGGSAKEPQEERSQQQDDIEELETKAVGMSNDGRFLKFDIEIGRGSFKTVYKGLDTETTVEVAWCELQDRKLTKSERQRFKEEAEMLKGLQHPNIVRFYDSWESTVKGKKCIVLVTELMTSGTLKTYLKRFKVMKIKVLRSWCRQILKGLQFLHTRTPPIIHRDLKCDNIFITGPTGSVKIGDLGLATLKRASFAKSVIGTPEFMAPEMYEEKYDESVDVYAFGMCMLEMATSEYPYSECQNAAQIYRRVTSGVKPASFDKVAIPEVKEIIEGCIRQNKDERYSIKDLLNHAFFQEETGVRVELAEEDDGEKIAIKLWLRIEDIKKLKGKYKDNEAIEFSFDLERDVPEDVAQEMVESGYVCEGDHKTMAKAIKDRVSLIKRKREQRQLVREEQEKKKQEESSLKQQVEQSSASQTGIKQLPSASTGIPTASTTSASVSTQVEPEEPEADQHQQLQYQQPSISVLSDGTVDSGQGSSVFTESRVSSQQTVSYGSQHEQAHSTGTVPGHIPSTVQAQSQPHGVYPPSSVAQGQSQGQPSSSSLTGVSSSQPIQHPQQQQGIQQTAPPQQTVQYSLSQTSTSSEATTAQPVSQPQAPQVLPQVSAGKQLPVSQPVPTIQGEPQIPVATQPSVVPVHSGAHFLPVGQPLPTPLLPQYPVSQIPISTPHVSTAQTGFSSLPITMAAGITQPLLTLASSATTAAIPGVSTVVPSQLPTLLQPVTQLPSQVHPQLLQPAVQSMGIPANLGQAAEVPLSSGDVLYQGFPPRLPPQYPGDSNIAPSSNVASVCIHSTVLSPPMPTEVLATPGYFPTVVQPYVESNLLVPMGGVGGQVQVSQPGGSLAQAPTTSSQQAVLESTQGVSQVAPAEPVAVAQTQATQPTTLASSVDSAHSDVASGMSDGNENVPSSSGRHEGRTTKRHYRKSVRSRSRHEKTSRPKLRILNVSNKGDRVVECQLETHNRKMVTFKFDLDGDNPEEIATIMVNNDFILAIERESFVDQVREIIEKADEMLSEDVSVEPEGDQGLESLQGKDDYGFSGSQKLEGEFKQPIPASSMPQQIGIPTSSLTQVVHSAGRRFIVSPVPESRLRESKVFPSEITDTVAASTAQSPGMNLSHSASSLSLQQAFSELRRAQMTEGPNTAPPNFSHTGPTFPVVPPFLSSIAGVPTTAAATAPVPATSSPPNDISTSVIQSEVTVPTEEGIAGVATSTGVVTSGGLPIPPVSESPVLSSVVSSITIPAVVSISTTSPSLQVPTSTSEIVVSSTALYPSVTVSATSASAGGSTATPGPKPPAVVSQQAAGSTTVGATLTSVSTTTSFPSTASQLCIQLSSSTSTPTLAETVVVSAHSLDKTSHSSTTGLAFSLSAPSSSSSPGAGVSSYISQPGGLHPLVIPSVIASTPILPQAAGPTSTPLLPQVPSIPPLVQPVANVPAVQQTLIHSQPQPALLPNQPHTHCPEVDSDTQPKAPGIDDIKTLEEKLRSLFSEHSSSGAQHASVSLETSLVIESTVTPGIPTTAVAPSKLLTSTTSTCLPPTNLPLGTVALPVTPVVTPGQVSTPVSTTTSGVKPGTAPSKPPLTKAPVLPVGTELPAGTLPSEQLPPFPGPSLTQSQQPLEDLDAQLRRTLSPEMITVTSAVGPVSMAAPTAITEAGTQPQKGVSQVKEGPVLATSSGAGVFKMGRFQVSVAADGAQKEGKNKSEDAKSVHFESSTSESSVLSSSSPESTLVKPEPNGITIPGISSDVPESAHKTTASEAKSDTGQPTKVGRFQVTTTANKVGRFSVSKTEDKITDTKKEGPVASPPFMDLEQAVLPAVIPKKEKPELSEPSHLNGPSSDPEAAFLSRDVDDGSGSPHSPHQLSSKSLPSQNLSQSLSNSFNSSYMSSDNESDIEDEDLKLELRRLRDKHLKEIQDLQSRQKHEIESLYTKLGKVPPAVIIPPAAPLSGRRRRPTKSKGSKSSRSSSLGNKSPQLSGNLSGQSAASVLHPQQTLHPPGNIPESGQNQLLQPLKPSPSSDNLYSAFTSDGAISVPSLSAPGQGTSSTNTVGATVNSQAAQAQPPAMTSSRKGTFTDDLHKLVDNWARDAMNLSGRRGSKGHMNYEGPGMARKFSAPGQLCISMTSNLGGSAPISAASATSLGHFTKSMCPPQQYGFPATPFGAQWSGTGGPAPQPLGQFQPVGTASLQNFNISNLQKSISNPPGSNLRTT

For `C[C@H](Nc1ncnc2nc[nH]c12)c1cc2cccc(Cl)c2c(=O)n1-c1ccccc1`, the Activity in assay [1] came out at 79.4%; in assay [2], 105%; in assay [3], 101%; in assay [4], 83.5%; in assay [5], 96.7%.
`CC[C@H](Nc1ncnc2[nH]cnc12)c1nc2cccc(F)c2c(=O)n1-c1ccccc1`: the Activity in assay [1] stood at 90.7%; in assay [2], 104%; in assay [3], 109%; in assay [4] it was 91.5%; in assay [5], 97%.
Take `CC(C)Oc1ccc(-c2nn([C@@H](C)c3oc4ccc(F)cc4c(=O)c3-c3cccc(F)c3)c3ncnc(N)c23)cc1F` [UMBRALISIB]: the Activity in assay [1] was determined as 100%; in assay [2], 102%; in assay [3], 111%; in assay [4] it was 88.2%; in assay [5], 98.6%.
